Laboratory results taken from patent US10681909B2, “Herbicidal triazoles” (FMC Corporation, priority 2014, dated 2020).

Experiments:
crabgrass, large = assay: Test C preemergence; format: in vivo, Digitaria sanguinalis; conditions: for Plant response rating (scale of 0 to 100 where 0 is no effect and 100 is complete control): Crabgrass, Large, preemergence; for Crabgrass, Large plant response rating (0 to 100): Preemergence, visual rating after 13 to 15 d
Source text: (§1) Seeds of plant species selected from blackgrass (Alopecurus myosuroides), ryegrass, Italian (Italian ryegrass, Lolium multiflorum), wheat (winter wheat, Triticum aestivum), galium (catchweed bedstraw, Galium aparine), corn (Zea mays), crabgrass, large (large crabgrass, Digitaria sanguinalis), foxtail, giant, (giant foxtail, Setaria faberii), johnsongrass (Sorghum halepense), lambsquarters (Chenopodium album), morningglory (Ipomoea coccinea), nutsedge, yellow (yellow nutsedge, Cyperus esculentus), pigweed (Amaranthus retroflexus), ragweed (common ragweed, Ambrosia elatior), soybean (Glycine max), barnyardgrass (Echinochloa crus-galli), oilseed rape (Brassica napus), waterhemp (common waterhemp, Amaranthus rudis), and velvetleaf (Abutilon theophrasti) were planted into a blend of loam soil and sand and treated preemergence with test chemicals formulated in a non-phytotoxic solvent mixture which included a surfactant. At the same time, plants selected from these crop and weed species and also chickweed (common chickweed, Stellaria media), oat, wild (wild oat, Avena fatua), and kochia (Kochia scoparia), were planted in pots containing Sunshine Redi-Earth® planting medium comprising spaghnum peat moss, vermiculite, starter nutrients and dolomitic limestone and treated with postemergence applications of test chemicals formulated in the same manner. Plants ranged in height from 2 to 18 cm (1- to 4-leaf stage) for postemergence treatments. […] A dash (-) response means no test result.

corn = assay: Test C preemergence; format: in vivo, Zea mays; conditions: for Plant response rating (scale of 0 to 100 where 0 is no effect and 100 is complete control): Corn, preemergence; for Corn plant response rating (0 to 100): Preemergence, visual rating after 13 to 15 d
Source text: as §1

lambsquarters = assay: Test C preemergence; format: in vivo, Chenopodium album; conditions: for Plant response rating (scale of 0 to 100 where 0 is no effect and 100 is complete control): Lambsquarters, preemergence; for Lambsquarters plant response rating (0 to 100): Preemergence, visual rating after 13 to 15 d
Source text: as §1

canarygrass [1] = assay: Test D preemergence; format: in vivo, Phalaris minor; conditions: for Plant response rating: Canarygrass: scale 0 to 100
Source text: (§2) Seeds of plant species selected from bluegrass (annual bluegrass, Poa annua), blackgrass (Alopecurus myosuroides), canarygrass (Phalaris minor), chickweed (common chickweed, Stellaria media), galium (catchweed bedstraw, Galium aparine), bromegrass, down (downy bromegrass, Bromus tectorum), Russian thistle (Salsola kali), field poppy (Papaver rhoeas), field violet (Viola arvensis), foxtail, green (green foxtail, Setaria viridis), deadnettle (henbit deadnettle, Lamium amplexicaule), ryegrass, Ital. (Italian ryegrass, Lolium multiflorum), kochia (Kochia scoparia), lambsquarters (Chenopodium album), oilseed rape (Brassica napus), pigweed (Amaranthus retroflexus), chamomile (scentless chamomile, Matricaria inodora), speedwell (bird's-eye speedwell, Veronica persica), barley, spring (spring barley, Hordeum vulgare), wheat, spring (spring wheat, Triticum aestivum), buckwheat, wild (wild buckwheat, Polygonum convolvulus), wild mustard (Sinapis arvensis), oat, wild (wild oat, Avena fatua), radish, wild (wild radish, Raphanus raphanistrum), […]), barley, winter (winter barley, Hordeum vulgare), and wheat, winter (winter wheat, Triticum aestivum) were planted into a silt loam soil and treated preemergence with test chemicals formulated in a non-phytotoxic solvent mixture which included a surfactant. At the same time, these species were planted in pots containing Sunshine Redi-Earth® planting medium comprising spaghnum peat moss, vermiculite, starter nutrients and dolomitic limestone and treated with postemergence applications of the test chemicals formulated in the same manner. Plants ranged in height from 2 to 18 cm (1- to 4-leaf stage). Treated plants and controls were maintained in a controlled growth environment for 14 to 21 d after which time all species were compared to controls and visually evaluated. […] A dash (-) response means no test result.

canarygrass [2] = assay: Test D postemergence; format: in vivo, Phalaris minor; conditions: scale 0 to 100
Source text: as §2

blackgrass = assay: Test C preemergence; format: in vivo, Alopecurus myosuroides; conditions: for Plant response rating (scale of 0 to 100 where 0 is no effect and 100 is complete control): Blackgrass, preemergence; for Blackgrass plant response rating (0 to 100): Preemergence, visual rating after 13 to 15 d
Source text: as §1

radish, wild = assay: Test D preemergence; format: in vivo, Raphanus raphanistrum; conditions: scale 0 to 100
Source text: as §2

pigweed [3] = assay: Test C preemergence; format: in vivo, Amaranthus retroflexus; conditions: for Plant response rating (scale of 0 to 100 where 0 is no effect and 100 is complete control): Pigweed, preemergence; for Pigweed plant response rating (0 to 100): Preemergence, visual rating after 13 to 15 d
Source text: as §1

windgrass [4] = assay: Test D preemergence; format: in vivo, Apera spica-venti; conditions: for Plant response rating: Windgrass: scale 0 to 100
Source text: as §2

pigweed [5] = assay: Test D postemergence; format: in vivo, Amaranthus retroflexus; conditions: scale 0 to 100
Source text: as §2

windgrass [6] = assay: Test D postemergence; format: in vivo, Apera spica-venti; conditions: scale 0 to 100
Source text: as §2

kochia = assay: Test A preemergence; format: in vivo, Kochia scoparia; conditions: 0 to 100 scale (0 no effect, 100 complete control)
Outline: (§3)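 Ratings reflect visual injury after ~10 d in greenhouse, 0 = no effect, 100 = complete control. Postemergence treatment was applied to one- to two-leaf seedlings; preemergence treatment was a directed soil spray at planting.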

ragweed = assay: Test A postemergence; format: in vivo, Ambrosia elatior; conditions: 0 to 100 scale (0 no effect, 100 complete control), approx. 10 d
Outline: as §3

[7] = 16 g ai/ha, 0 is no effect, 100 is complete control

CCOc1nc(-c2ccc(F)cc2)nn1Cc1ccnc(C(F)(F)F)c1 [Compound 8, 4-[[5-ethoxy-3-(4-fluorophenyl)-1H-1,2,4-triazol-1-yl]methyl]-2-(trifluoromethyl)pyridine]
Plant response rating (scale of 0 to 100 where 0 is no effect and 100 is complete control) (crabgrass, large; 125 g ai/ha): 100
Plant response rating (scale of 0 to 100 where 0 is no effect and 100 is complete control) (crabgrass, large; 250 g ai/ha): 100
Crabgrass, Large plant response rating (0 to 100) (crabgrass, large; 31 g ai/ha): 100
Crabgrass, Large plant response rating (0 to 100) (crabgrass, large; 62 g ai/ha): 100
Plant response rating (scale of 0 to 100 where 0 is no effect and 100 is complete control) (corn; 125 g ai/ha): 65
Plant response rating (scale of 0 to 100 where 0 is no effect and 100 is complete control) (corn; 250 g ai/ha): 65
Corn plant response rating (0 to 100) (corn; 31 g ai/ha): 35
Corn plant response rating (0 to 100) (corn; 62 g ai/ha): 55
Plant response rating (scale of 0 to 100 where 0 is no effect and 100 is complete control) (lambsquarters; 125 g ai/ha): 100
Plant response rating (scale of 0 to 100 where 0 is no effect and 100 is complete control) (lambsquarters; 250 g ai/ha): 100
Lambsquarters plant response rating (0 to 100) (lambsquarters; 31 g ai/ha): 95
Lambsquarters plant response rating (0 to 100) (lambsquarters; 62 g ai/ha): 98
Plant response rating: Canarygrass (canarygrass [1]; 31 g ai/ha): 50
Plant response rating: Canarygrass (canarygrass [1]; 62 g ai/ha): 100
Plant response rating: Canarygrass (canarygrass [1]; 125 g ai/ha): 100
Plant response rating: Canarygrass (canarygrass [1]; 250 g ai/ha): 100
Plant response rating: Canarygrass (canarygrass [2]; 31 g ai/ha): 55
Plant response rating: Canarygrass (canarygrass [2]; 62 g ai/ha): 60
Plant response rating: Canarygrass (canarygrass [2]; 125 g ai/ha): 65
Plant response rating: Canarygrass (canarygrass [2]; 250 g ai/ha): 75
Plant response rating (scale of 0 to 100 where 0 is no effect and 100 is complete control) (blackgrass; 125 g ai/ha): 90
Plant response rating (scale of 0 to 100 where 0 is no effect and 100 is complete control) (blackgrass; 250 g ai/ha): 90
Blackgrass plant response rating (0 to 100) (blackgrass; 31 g ai/ha): 90
Blackgrass plant response rating (0 to 100) (blackgrass; 62 g ai/ha): 90
Plant response rating: Radish, Wild (radish, wild; 62 g ai/ha): 60
Plant response rating: Radish, Wild (radish, wild; 125 g ai/ha): 100
Plant response rating: Radish, Wild (radish, wild; 250 g ai/ha): 100
Plant response rating (scale of 0 to 100 where 0 is no effect and 100 is complete control) (pigweed [3]; 125 g ai/ha): 100
Plant response rating (scale of 0 to 100 where 0 is no effect and 100 is complete control) (pigweed [3]; 250 g ai/ha): 100
Pigweed plant response rating (0 to 100) (pigweed [3]; 31 g ai/ha): 100
Pigweed plant response rating (0 to 100) (pigweed [3]; 62 g ai/ha): 100
Plant response rating: Windgrass (windgrass [4]; 62 g ai/ha): 90
Plant response rating: Windgrass (windgrass [4]; 125 g ai/ha): 100
Plant response rating: Windgrass (windgrass [4]; 250 g ai/ha): 100
Plant response rating: Pigweed (pigweed [5]; 31 g ai/ha): 95
Plant response rating: Pigweed (pigweed [5]; 62 g ai/ha): 95
Plant response rating: Pigweed (pigweed [5]; 125 g ai/ha): 100
Plant response rating: Pigweed (pigweed [5]; 250 g ai/ha): 95
Plant response rating: Windgrass (windgrass [6]; 31 g ai/ha): 40
Plant response rating: Windgrass (windgrass [6]; 62 g ai/ha): 60
Plant response rating: Windgrass (windgrass [6]; 125 g ai/ha): 75
Plant response rating: Windgrass (windgrass [6]; 250 g ai/ha): 85

COc1nc(-c2ccc(Cl)cc2)nn1Cc1ccnc(C(F)(F)F)c1 [Compound 28]
Plant response rating (0 to 100), Canarygrass (canarygrass [1]; [7]): 10
Plant response rating: Canarygrass (canarygrass [1]; 31 g ai/ha): 40
Plant response rating: Canarygrass (canarygrass [1]; 62 g ai/ha): 60
Plant response rating: Canarygrass (canarygrass [1]; 125 g ai/ha): 65
Plant response rating: Canarygrass (canarygrass [2]; 16 g ai/ha): 25
Plant response rating: Canarygrass (canarygrass [2]; 31 g ai/ha): 30
Plant response rating: Canarygrass (canarygrass [2]; 62 g ai/ha): 45
Plant response rating: Canarygrass (canarygrass [2]; 125 g ai/ha): 50
Plant response rating, Kochia (kochia; 125 g ai/ha): 70
Plant response rating, Kochia (kochia; 500 g ai/ha, approx. 10 d): 90
Plant response rating: Radish, Wild (radish, wild; 62 g ai/ha): 60
Plant response rating: Radish, Wild (radish, wild; 125 g ai/ha): 80
Plant response rating, Ragweed (ragweed; 125 g ai/ha): 20
Plant response rating, Ragweed (ragweed; 500 g ai/ha): 30
Plant response rating (0 to 100), Windgrass (windgrass [4]; [7]): 25
Plant response rating: Windgrass (windgrass [4]; 62 g ai/ha): 50
Plant response rating: Windgrass (windgrass [4]; 125 g ai/ha): 80
Plant response rating: Pigweed (pigweed [5]; 16 g ai/ha): 100
Plant response rating: Pigweed (pigweed [5]; 31 g ai/ha): 100
Plant response rating: Pigweed (pigweed [5]; 62 g ai/ha): 100
Plant response rating: Pigweed (pigweed [5]; 125 g ai/ha): 100
Plant response rating: Windgrass (windgrass [6]; 16 g ai/ha): 25
Plant response rating: Windgrass (windgrass [6]; 31 g ai/ha): 25
Plant response rating: Windgrass (windgrass [6]; 62 g ai/ha): 45
Plant response rating: Windgrass (windgrass [6]; 125 g ai/ha): 45
